Measured values: US8466188B2, “Use of spiro-oxindole compounds as therapeutic agents” (Xenon Pharmaceuticals Inc., priority 2006, dated 2013)
pIC50: −log10 of the molar value.

How the values were obtained:
[1] = tested on: sodium channel; assay: Guanidine influx assay (14C-guanidine radiotracer flux) in a known cell line that expresses a sodium channel; format: cell-based, human or rat
Excerpt: This example describes an in vitro assay for testing and profiling test agents against human or rat sodium channels stably expressed in cells of either an endogenous or recombinant origin.
The guanidine influx assay is a radiotracer flux assay used to determine ion flux activity of sodium channels in a high-throughput microplate-based format. The assay uses ^14C-guanidine hydrochloride in combination with various known sodium channel modulators, to assay the potency of test agents. Potency is determined by an IC50 calculation. Selectivity is determined by comparing potency of the compound for the channel of interest to its potency against other sodium channels (also called ‘selectivity profiling’).
Each of the test agents is assayed against cells that express the sodium channel of interest. Voltage gated sodium channels are either TTX sensitive or insensitive. This property is useful when evaluating the activities of a channel of interest when it resides in a mixed population with other sodium channels. The following Table 1 lists certain cell lines which are useful in screening for a certain sodium channel activity in the presence or absence of TTX.
It is also possible to employ recombinant cells expressing these sodium channels.
Cells expressing the channel of interest are grown according to the supplier or in the case of a recombinant cell in the presence of selective growth media such as G418 (Gibco/Invitrogen). The cells are disassociated from the culture dishes with an enzymatic solution (1×) Trypsin/EDTA (Gibco/Invitrogen) and analyzed for density and viability using haemocytometer (Neubauer). Disassociated cells are washed and resuspended in their culture media then plated into Scintiplates (Beckman Coulter Inc.) (approximately 100,000 cells/well) and incubated at 37° C./5% CO2 for 20-24 hours. After an extensive wash with Low sodium HEPES-buffered saline solution (LNHBSS) (150 mM Choline Chloride, […] (Sigma), 1 mM Calcium Chloride, 5 mM Potassium Chloride, 1 mM Magnesium Chloride, 10 mM Glucose) agents diluted with LNHBSS are added to each well. (Varying concentrations of test agent may be used). The activation/radiolabel mixture contains aconitine (Sigma), and ^14C-guanidine hydrochloride (ARC).
After loading the cells with test agent and activation/radiolabel mixture, the Scintiplates are incubated at ambient temperature. Following the incubation, the Scintplates are extensively washed with LNHBSS supplemented with guanidine (Sigma). The Scintiplates are dried and then counted using a Wallac MicroBeta TriLux (Perkin-Elmer Life Sciences). The ability of the test agent to block sodium channel activity is determined by comparing the amount of ^14C-guanidine present inside the cells expressing the different sodium channels.
IC50 value of a test agent for a specific sodium channel may be determined using the above general method. […] The IC50 curve is calculated using the 4 Parameter Logistic Model or Sigmoidal Dose-Response Model formula (fit=(A+((B−A)/(1+((C/x)^D)))).
The fold selectivity, factor of selectivity or multiple of selectivity, is calculated by dividing the IC50 value of the test sodium channel by the reference sodium channel, for example, Nav1.5.
The Example numbers provided in Table 2 correspond to the Example numbers herein: […]

SMILES | pIC50 [1] | melting point [°C]
CCCCCN1C(=O)C2(COc3cc(-c4cccnc4)ccc32)c2ccccc21 (stereo not drawn) [Example 37, 1′-pentyl-6-pyridin-3-ylspiro[1-benzofuran-3,3′-indol]-2′(1′H)-one] | < 6.00 | 
CCCCCCN1C(=O)C2(CC(=O)Oc3cc4c(cc32)OCO4)c2ccccc21 (stereo not drawn) [Example 31, 1′-hexylspiro[1,3-dioxolo[4,5-g]chromene-8,3′-indole]-2′,6(1′H,7H)-dione] | < 6.00 | 
CCCCCN1C(=O)C2(CCCc3cc4c(cc32)OCO4)c2ccccc21 (stereo not drawn) [Example 24, 1-pentyl-7′,8′-dihydro-6′H-spiro[indole-3,5′-naphtho[2,3-d][1,3]dioxol]-2(1H)-one] | 8.00 to 9.00 | 
CCCCCN1C(=O)C2(COc3cc(N4CCOCC4)ccc32)c2ccccc21 (stereo not drawn) [Example 34, 6-morpholin-4-yl-1′-pentylspiro[1-benzofuran-3,3′-indol]-2′(1′H)-one] | < 6.00 | 
O=C(O)c1ccccc1CN1C(=O)C2(COc3cc4c(cc32)OCO4)c2ccccc21 (stereo not drawn) [Example 6, 2-[(2′-oxospiro[furo[2,3-f][1,3]benzodioxole-7,3′-indol]-1′(2′H)-yl)methyl]benzoic acid] | < 6.00 | 
O=C(Nc1cccc(F)c1)c1ccc(CN2C(=O)C3(COc4cc5c(cc43)OCO5)c3ccccc32)cc1 (stereo not drawn) [Example 12, N-(3-fluorophenyl)-4-[(2′-oxospiro[furo[2,3-f][1,3]benzodioxole-7,3′-indol]-1′(2′H)-yl)methyl]benzamide] | 6.00 to 7.00 | 
CCCCCN1C(=O)C2(COc3ccc(C#N)cc32)c2ccccc21 (stereo not drawn) [Example 51, 2′-oxo-1′-pentyl-1′,2′-dihydrospiro[1-benzofuran-3,3′-indole]-5-carbonitrile] | 6.00 to 7.00 | 
O=C(NCCc1cccc(Cl)c1)c1cccc(CN2C(=O)C3(COc4cc5c(cc43)OCO5)c3ccccc32)c1 (stereo not drawn) [Example 9, N-[2-(3-chlorophenyl)ethyl]-3-[(2′-oxospiro[furo[2,3-f][1,3]benzodioxole-7,3′-indol]-1′(2′H)-yl)methyl]benzamide] | 6.00 to 7.00 | 
O=C(NCCc1ccc(Cl)cc1)c1ccccc1CN1C(=O)C2(COc3cc4c(cc32)OCO4)c2ccccc21 (stereo not drawn) [Example 7, N-[2-(4-chlorophenyl)ethyl]-2-[(2′-oxospiro[furo[2,3-f][1,3]benzodioxole-7,3′-indol]-1′(2′H)-yl)methyl]benzamide] | 6.00 to 7.00 | 
CCCCCN1C(=O)C2(COc3cc4c(cc32)OCO4)c2c(-c3ccc(N(C)C)nc3)cccc21 (stereo not drawn) [Example 4, 4′-[6-(dimethylamino)pyridin-3-yl]-1′-pentylspiro[furo[2,3-f][1,3]benzodioxole-7,3′-indol]-2′(1′H)one] | 6.00 to 7.00 | 
CCCCCN1C(=O)C2(COc3ccccc32)c2ccccc21 (stereo not drawn) [Example 32, 1′-pentylspiro[1-benzofuran-3,3′-indol]-2′(1′H)-one] | 7.00 to 8.00 | 
CCCCCN1C(=O)C2(COc3cc4c(cc32)OCO4)c2c(C(=O)Nc3ccccn3)cccc21 (stereo not drawn) [Example 29, 2′-oxo-1′-pentyl-N-pyridin-2-yl-1′,2′-dihydrospiro[furo[2,3-f][1,3]benzodioxole-7,3′-indole]-4′-carboxamide] | < 6.00 | 
O=C(O)CN1C(=O)C2(COc3cc4c(cc32)OCO4)c2ccccc21 (stereo not drawn) [Example 2, (2′-oxospiro[furo[2,3-f][1,3]benzodioxole-7,3′-indol]-1′(2′H)-yl)acetic acid] | < 6.00 | 
CCCCCN1C(=O)C2(COc3cc(S(=O)(=O)c4ccccc4)ccc32)c2ccccc21 (stereo not drawn) [Example 40, 1′-pentyl-6-(phenylsulfonyl)spiro[1-benzofuran-3,3′-indol]-2′(1′H)-one] | 6.00 to 7.00 | 
O=C1N(CCCO)c2ccccc2C12COc1cc3c(cc12)OCO3 (stereo not drawn) [Example 13, 1′-(3-hydroxypropyl)spiro[furo[2,3-f][1,3]benzodioxole-7,3′-indol]-2′(1′H)-one] | 7.00 to 8.00 | 
CCCCCN1C(=O)C2(COc3cc4c(cc32)OCO4)c2c(Nc3ccc(OC)nc3)cccc21 (stereo not drawn) [Example 5, 4′-[(6-methoxypyridin-3-yl)amino]-1′-pentylspiro[furo[2,3-f][1,3]benzodioxole-7,3′-indol]-2′(1′H)-one] | 6.00 to 7.00 | 
O=C1N(Cc2ccc(F)cc2)c2ccccc2C12COc1cc3c(cc12)OCO3 (stereo not drawn) [Example 10, 1′-(4-fluorobenzyl)spiro[furo[2,3-f][1,3]benzodioxole-7,3′-indol]-2′(1′H)-one] | 7.00 to 8.00 | 

SMILES | pIC50 [1] | melting point [°C]
O=C1N(CCCNCC2CC2)c2ccccc2C12COc1cc3c(cc12)OCO3 (stereo not drawn) [Example 15, 1′-{3-[(cyclopropylmethyl)amino]propyl}spiro[furo[2,3-f][1,3]benzodioxole-7,3′-indol]-2′(1′H)-one] | < 6.00 | 
CCCCCN1C(=O)C2(CC(=O)c3cc4c(cc32)OCO4)c2ccccc21 (stereo not drawn) [Example 21, 1′-pentylspiro[indeno[5,6-d][1,3]dioxole-5,3′-indole]-2′,7(1′H,6H)-dione] | 8.00 to 9.00 | 
CCCCCN1C(=O)C2(CNC(=O)c3cc4c(cc32)OCO4)c2ccccc21 (stereo not drawn) [Example 28, 1′-pentyl-6,7-dihydro-5H-spiro[1,3-dioxolo[4,5-d]isoquinoline-8,3′-indole]-2′,5(1′H)-dione] | < 6.00 | 
NCCN1C(=O)C2(COc3cc4c(cc32)OCO4)c2ccccc21 (stereo not drawn) [Example 18, 1′-(2-aminoethyl)spiro[furo[2,3-f][1,3]benzodioxole-7,3′-indol]-2′(1′H)-one] | < 6.00 | 
CCCCCN1C(=O)C2(CCc3cc4c(cc32)OCO4)c2ccccc21 (stereo not drawn) [Example 23, 1′-pentyl-6,7-dihydrospiro[indeno[5,6-d][1,3]dioxole-5,3′-indol]-2′(1′H)-one] | 6.00 to 7.00 | 
NCCCN1C(=O)C2(COc3cc4c(cc32)OCO4)c2ccccc21 (stereo not drawn) [Example 16, 1′-(3-aminopropyl)spiro[furo[2,3-f][1,3]benzodioxole-7,3′-indol]-2′(1′H)-one] | < 6.00 | 
CCCCCN1C(=O)C2(COc3ccc(-c4ccncc4)cc32)c2ccccc21 (stereo not drawn) [Example 50, 1′-pentyl-5-pyridin-4-ylspiro[1-benzofuran-3,3′-indol]-2′(1′H)-one] | 6.00 to 7.00 | 
CCCCCN1C(=O)C2(CC(O)c3cc4c(cc32)OCO4)c2ccccc21 (stereo not drawn) [Example 26, 7-hydroxy-1′-pentyl-6,7-dihydrospiro[indeno[5,6-d][1,3]dioxole-5,3′-indol]-2′(1′H)-one] | < 6.00 | 
CCCCCN1C(=O)C2(COc3cc(Nc4ccccc4)ccc32)c2ccccc21 (stereo not drawn) [Example 33, 6-anilino-1′-pentylspiro[1-benzofuran-3,3′-indol]-2′(1′H)-one] | < 6.00 | 
CCCCCN1C(=O)C2(COc3ccc(Oc4ccccc4)cc32)c2ccccc21 (stereo not drawn) [Example 41, 1′-pentyl-5-phenoxyspiro[1-benzofuran-3,3′-indol]-2′(1′H)-one] | < 6.00 | 
O=C(NCCCN1C(=O)C2(COc3cc4c(cc32)OCO4)c2ccccc21)c1sccc1Cl (stereo not drawn) [Example 17, 3-chloro-N-[3-(2′-oxospiro[furo[2,3-f][1,3]benzodioxole-7,3′-indol]-1′(2′H)-yl)propyl]thiophene-2-carboxamide] | 7.00 to 8.00 | 
O=C(O)c1cccc(CN2C(=O)C3(COc4cc5c(cc43)OCO5)c3ccccc32)c1 (stereo not drawn) [Example 8, 3-[(2′-oxospiro[furo[2,3-f][1,3]benzodioxole-7,3′-indol]-1′(2′H)-yl)methyl]benzoic acid] | 6.00 to 7.00 | 
O=C1N(Cc2cccc(OC(F)(F)F)c2)c2ccccc2C12COc1cc3c(cc12)OCO3 (stereo not drawn) [Example 10.37, 1′[3-(trifluoromethoxy)benzyl]spiro[furo[2,3-f][1,3]benzodioxole-7,3′-indol]-2′(1′H)-one] |  | 88 to 91
O=C1Nc2ccccc2C12COc1ccc(Br)cc12 (stereo not drawn) [Example 1.34, 5-bromospiro[1-benzofuran-3,3′-indol]-2′(1′H)-one] |  | 225 to 228
O=C1N(Cc2cnc(Cl)s2)c2ccccc2C12COc1cc3c(cc12)OCO3 (stereo not drawn) [Example 10.70, 1′[(2-chloro-1,3-thiazol-5-yl)methyl]spiro[furo[2,3-f][1,3]benzodioxole-7,3′-indol]-2′(1′H)one] |  | 195 to 198
Cc1cccc2c1C1(COc3cc4c(cc31)OCO4)C(=O)N2Cc1ccc(C(F)(F)F)o1 (stereo not drawn) [Example 10.75, 4′-methyl-1′-{[5-(trifluoromethyl)-2-furyl]methyl}spiro[furo[2,3-f][1,3]benzodioxole-7,3′-indol]-2′(1′H)-one] |  | 117 to 119
